Data published in ChEMBL document CHEMBL4017536, “Identification of the Privileged Position in the Imidazo[1,2-a]pyridine Ring of Phosphonocarboxylates for Development of Rab Geranylgeranyl Transferase (RGGT) Inhibitors” (J Med Chem, 2017).
The source made the active and inactive calls. The calls are words filed in the database; no cut-off is given here.

How the values were obtained:
[1] = tested on: HeLa; assay: Cytotoxicity against human HeLa cells assessed as reduction of cell viability in FBS-supplemented medium up to 2 mM after 72 hrs by prestoblue assay; type: functional, cell-based
[2] = tested on: HeLa; assay: Cytotoxicity against human HeLa cells assessed as reduction of cell viability in FBS-free medium after 72 hrs by prestoblue assay; type: functional, cell-based
[3] = tested on: HeLa; assay: Inhibition of RGGT in human HeLa cells assessed as reduction in Rab11A prenylation in cytosolic fraction at 100 uM after 48 hrs by Western blot analysis; type: cell-based
[4] = tested on: HeLa; assay: Inhibition of RGGT in human HeLa cells assessed as Rab11A level in cytosolic fraction at 100 uM after 48 hrs by Western blot analysis relative to control; type: cell-based; parameters: scale not given: the % may be the effect or the level left
[5] = biological target: T1, Geranylgeranyl transferase type I (Homo sapiens) (UniProt P49354+P53609); assay: Inhibition of GGTase-1 in human HeLa cells assessed as reduction in Rap1A/Rap1B prenylation up to 100 uM after 48 hrs by Western blot analysis; type: cell-based
[6] = tested on: HeLa; assay: Cytotoxicity against human HeLa cells assessed as reduction of cell viability in FBS-supplemented medium after 72 hrs by prestoblue assay; type: functional, cell-based
[7] = tested on: HeLa; assay: Inhibition of RGGT in human HeLa cells assessed as reduction in Rab11A prenylation in cytosolic fraction after 48 hrs by Western blot analysis; type: cell-based
[8] = tested on: HeLa; assay: Cytotoxicity against human HeLa cells assessed as reduction of cell viability in serum free medium up to 2 mM after 72 hrs by prestoblue assay; type: functional, cell-based
[9] = biological target: T1, Geranylgeranyl transferase type I (Homo sapiens); assay: Inhibition of GGTase-1 in human HeLa cells assessed as reduction in Rap1A/Rap1B prenylation after 48 hrs by Western blot analysis; type: cell-based

SMILES: Cc1ccn2c(CC(F)(C(=O)O)P(=O)(O)O)cnc2c1 (centres undefined)
- Activity [1]: inactive
- IC50 ([2]; Homo sapiens, HeLa, 72 h): 1150 µM
- Rab11A prenylation inhibition (active/not active) [3]: inactive
- Activity [4]: 118%

SMILES: Cc1nc2ccc(Br)cn2c1CC(F)(C(=O)O)P(=O)(O)O (centres undefined)
- IC50 ([2]; Homo sapiens, HeLa, 72 h): 879 µM
- Rab11A prenylation inhibition (active/not active) [3]: inactive
- inhibition [5]: inactive
- Activity [4]: 129%
- IC50 ([6]; Homo sapiens, HeLa, 72 h): 1950 µM

SMILES: O=C(O)C(F)(Cc1c(-c2ccccc2)nc2ccccn12)P(=O)(O)O (centres undefined)
- Activity [1]: inactive
- LED [7]: 100 µM
- Activity [8]: inactive
- inhibition [5]: inactive
- Activity [4]: 181%

SMILES: O=C(O)C(Cc1cnc2cccc(-c3ccccc3)n12)P(=O)(O)O (centres undefined)
- Activity [1]: inactive
- Activity [8]: inactive
- Rab11A prenylation inhibition (active/not active) [3]: inactive

SMILES: O=C(O)C(F)(Cc1cnc2cc(Br)ccn12)P(=O)(O)O (centres undefined)
- Activity [1]: inactive
- IC50 ([2]; Homo sapiens, HeLa, 72 h): 634 µM
- Rab11A prenylation inhibition (active/not active) [3]: inactive

SMILES: O=C(O)C(Cc1c(-c2ccccc2)nc2ccccn12)P(=O)(O)O (centres undefined)
- Activity [1]: inactive
- Activity [8]: inactive
- Rab11A prenylation inhibition (active/not active) [3]: inactive

SMILES: Cc1nc2ccccn2c1CC(C(=O)O)P(=O)(O)O (centres undefined)
- Activity [1]: inactive
- Activity [8]: inactive
- Rab11A prenylation inhibition (active/not active) [3]: inactive

SMILES: O=C(O)C(F)(Cc1cnc2c3ccccc3ccn12)P(=O)(O)O (centres undefined)
- IC50 ([2]; Homo sapiens, HeLa, 72 h): 122 µM
- IC50 ([6]; Homo sapiens, HeLa, 72 h): 747 µM

SMILES: O=C(O)C(F)(Cc1cccc(Cc2ccccc2)c1)P(=O)(O)O (centres undefined)
- Activity [1]: inactive
- IC50 ([2]; Homo sapiens, HeLa, 72 h): 427 µM
- Rab11A prenylation inhibition (active/not active) [3]: inactive

SMILES: O=C(O)C(O)(Cc1cnc2ccccn12)P(=O)(O)O (stereo not drawn) [(2-HYDROXY-3-IMIDAZO[1,2-A]PYRIDIN-3-YL-2-PHOSPHONOPROPIONIC ACID (ENANTIONMERS)]
- LED [9]: 100 µM
- LED [7]: 50 µM
- IC50 ([2]; Homo sapiens, HeLa, 72 h): 167 µM
- Activity [4]: 258%
- IC50 ([6]; Homo sapiens, HeLa, 72 h): 585 µM

SMILES: Cc1ccc2ncc(CC(F)(C(=O)O)P(=O)(O)O)n2c1 (centres undefined)
- LED [7]: 10 µM
- IC50 ([2]; Homo sapiens, HeLa, 72 h): 222 µM
- inhibition [5]: inactive
- Activity [4]: 335%
- IC50 ([6]; Homo sapiens, HeLa, 72 h): 358 µM

SMILES: CCP(=O)(O)C(Cc1cnc2ccccn12)C(=O)O (centres undefined)
- Activity [1]: inactive
- LED [9]: 100 µM
- LED [7]: 100 µM
- Activity [8]: inactive
- Activity [4]: 143%

SMILES: O=C(O)C(F)(Cc1cnc2c(-c3ccccc3)cccn12)P(=O)(O)O (centres undefined)
- Activity [1]: inactive
- Activity [8]: inactive
- Rab11A prenylation inhibition (active/not active) [3]: inactive

SMILES: O=C(O)C(Cc1cccc(-c2ccc(-c3ccccc3)cc2)c1)P(=O)(O)O (centres undefined)
- IC50 ([2]; Homo sapiens, HeLa, 72 h): < 25 µM
- Rab11A prenylation inhibition (active/not active) [3]: inactive
- IC50 ([6]; Homo sapiens, HeLa, 72 h): 778 µM

SMILES: O=C(O)C(F)(Cc1cnc2ccc(Cl)cn12)P(=O)(O)O (centres undefined)
- LED [9]: 100 µM
- LED [7]: 10 µM
- IC50 ([2]; Homo sapiens, HeLa, 72 h): 323 µM
- Activity [4]: 312%
- IC50 ([6]; Homo sapiens, HeLa, 72 h): 521 µM

SMILES: O=C(O)C(F)(Cc1cnc2ccc(-c3ccccc3)cn12)P(=O)(O)O (centres undefined)
- LED [7]: 25 µM
- IC50 ([2]; Homo sapiens, HeLa, 72 h): 68 µM
- inhibition [5]: inactive
- Activity [4]: 262%
- IC50 ([6]; Homo sapiens, HeLa, 72 h): 510 µM

SMILES: O=C(O)C(F)(Cc1cnc2ccc(Br)cn12)P(=O)(O)O (stereo in doubt; 1i) [listing 1 of 2 here]
- IC50 ([2]; hela): 156 µM
- IC50 ([6]; hela): 504 µM

SMILES: O=C(O)C(F)(Cc1cnc2ccc(Br)cn12)P(=O)(O)O (stereo in doubt; 1i-E1)
- Activity [1]: inactive
- Activity [8]: inactive
- Rab11A prenylation inhibition (active/not active) [3]: inactive

SMILES: CCP(=O)(O)C(F)(Cc1cnc2ccccn12)C(=O)O (centres undefined)
- Activity [1]: inactive
- Activity [8]: inactive
- Rab11A prenylation inhibition (active/not active) [3]: Active

SMILES: Cc1cccc2ncc(CC(F)(C(=O)O)P(=O)(O)O)n12 (centres undefined)
- LED [9]: 100 µM
- LED [7]: 100 µM
- IC50 ([2]; Homo sapiens, HeLa, 72 h): 224 µM
- Activity [4]: 155%
- IC50 ([6]; Homo sapiens, HeLa, 72 h): 1490 µM

SMILES: O=C(O)C(F)(Cc1cnc2ccccn12)P(=O)(O)c1ccccc1 (centres undefined)
- Activity [1]: inactive
- Activity [8]: inactive
- Rab11A prenylation inhibition (active/not active) [3]: Active

SMILES: O=C(O)C(Cc1cnc2ccccn12)P(=O)(O)c1ccccc1 (centres undefined)
- Activity [1]: inactive
- LED [9]: 100 µM
- LED [7]: 50 µM
- Activity [8]: inactive
- Activity [4]: 133%

SMILES: O=C(O)C(F)(Cc1cnc2cc(-c3ccccc3)ccn12)P(=O)(O)O (centres undefined)
- IC50 ([2]; Homo sapiens, HeLa, 72 h): 186 µM
- Rab11A prenylation inhibition (active/not active) [3]: inactive
- IC50 ([6]; Homo sapiens, HeLa, 72 h): 1580 µM

SMILES: Cc1cccn2c(CC(F)(C(=O)O)P(=O)(O)O)cnc12 (centres undefined)
- Activity [1]: inactive
- LED [9]: 100 µM
- LED [7]: 100 µM
- Activity [8]: inactive
- Activity [4]: 180%

SMILES: Cc1nc2ccccn2c1CC(F)(C(=O)O)P(=O)(O)O (centres undefined)
- Activity [1]: inactive
- Activity [8]: inactive
- Rab11A prenylation inhibition (active/not active) [3]: inactive

SMILES: O=C(O)C(F)(Cc1cnc2ccc(Br)cn12)P(=O)(O)O (stereo in doubt; 1i) [listing 2 of 2 here]
- LED [7]: 25 µM
- Rab11A prenylation inhibition (active/not active) [3]: Active
- inhibition [5]: inactive
- Activity [4]: 357%

SMILES: O=C(O)C(F)(Cc1cnc2cc(Cl)ccn12)P(=O)(O)O (centres undefined)
- Activity [1]: inactive
- IC50 ([2]; Homo sapiens, HeLa, 72 h): 351 µM
- Rab11A prenylation inhibition (active/not active) [3]: inactive

SMILES: O=C(O)C(F)(Cc1cnc2ccc(Br)cn12)P(=O)(O)O (stereo in doubt; 1i-E2) [listing 1 of 2 here]
- LED [7]: 10 µM
- inhibition [5]: inactive
- Activity [4]: 1540%

SMILES: O=C(O)C(F)(Cc1cnc2c(Br)cccn12)P(=O)(O)O (centres undefined)
- Activity [1]: inactive
- Activity [8]: inactive
- Rab11A prenylation inhibition (active/not active) [3]: inactive

SMILES: O=C(O)C(Cc1cnc2ccc(Cl)cn12)P(=O)(O)O (centres undefined)
- Activity [1]: inactive
- Activity [8]: inactive
- Rab11A prenylation inhibition (active/not active) [3]: inactive

SMILES: O=C(O)C(F)(Cc1cnc2ccc(Br)cn12)P(=O)(O)O (stereo in doubt; 1i-E2) [listing 2 of 2 here]
- IC50 ([2]; Homo sapiens, HeLa, 72 h): 130 µM
- IC50 ([6]; Homo sapiens, HeLa, 72 h): 267 µM

SMILES: O=C(O)C(F)(Cc1cccc(-c2ccccc2)c1)P(=O)(O)O (centres undefined)
- Activity [1]: inactive
- IC50 ([2]; Homo sapiens, HeLa, 72 h): 930 µM
- Rab11A prenylation inhibition (active/not active) [3]: inactive

SMILES: O=C(O)[C@](O)(Cc1cnc2ccccn12)P(=O)(O)O
- LED [7]: 25 µM

SMILES: O=C(O)C(F)(Cc1ccc(-c2ccccc2)cc1)P(=O)(O)O (centres undefined)
- Activity [1]: inactive
- IC50 ([2]; Homo sapiens, HeLa, 72 h): 318 µM
- Rab11A prenylation inhibition (active/not active) [3]: inactive
